Data published in the NIST ThermoML archive (doi:10.1021/je901020a).
± gives the expanded uncertainty stated by the source.

Legend:
[1] = xn = mol fraction of the nth substance listed; details: 101 kPa, Liquid; for speed of sound: Pulse-echo method
[2] = refractive index (Na D-line) (dimensionless); xn = mol fraction of the nth substance listed; details: 101 kPa, Liquid, Standard Abbe refractometry

For `C1CCCC1` [cyclopentane] + Cc1cccc(C)c1, the speed of sound ([1]; 298.15 K, x1 = 0.0391) was 1315 ± 2 m/s, the speed of sound ([1]; 298.15 K, x1 = 0.0908) was 1308 ± 2 m/s and the speed of sound ([1]; 298.15 K, x1 = 0.1894) was 1296 ± 2 m/s. For the same compound, the speed of sound ([1]; 298.15 K, x1 = 0.2859) was 1284 ± 2 m/s, the speed of sound ([1]; 298.15 K, x1 = 0.3868) was 1272 ± 2 m/s and the speed of sound ([1]; 298.15 K, x1 = 0.4808) was 1260 ± 2 m/s. For the same compound, the speed of sound ([1]; 298.15 K, x1 = 0.6394) was 1241 ± 2 m/s, the speed of sound ([1]; 298.15 K, x1 = 0.6923) was 1235 ± 2 m/s and the speed of sound ([1]; 298.15 K, x1 = 0.7909) was 1224 ± 2 m/s. It also gave a speed of sound ([1]; 298.15 K, x1 = 0.8952) of 1214 ± 2 m/s, a speed of sound ([1]; 298.15 K, x1 = 0.9514) of 1208 ± 2 m/s and a speed of sound ([1]; 298.15 K, x1 = 1) of 1204 ± 2 m/s. The mass density ([1]; 298.15 K, x1 = 0.0391) was 856.1 ± 0.5 kg/m3, the mass density ([1]; 298.15 K, x1 = 0.0908) was 851.1 ± 0.5 kg/m3 and the mass density ([1]; 298.15 K, x1 = 0.1894) was 841.2 ± 0.5 kg/m3. The mass density ([1]; 298.15 K, x1 = 0.2859) was 831.2 ± 0.5 kg/m3, the mass density ([1]; 298.15 K, x1 = 0.3868) was 820.1 ± 0.5 kg/m3 and the mass density ([1]; 298.15 K, x1 = 0.4808) was 809.2 ± 0.6 kg/m3. It also gave a mass density ([1]; 298.15 K, x1 = 0.6394) of 789.8 ± 0.6 kg/m3, a mass density ([1]; 298.15 K, x1 = 0.6923) of 782.9 ± 0.6 kg/m3 and a mass density ([1]; 298.15 K, x1 = 0.7909) of 769.7 ± 0.6 kg/m3. It also gave a mass density ([1]; 298.15 K, x1 = 0.8952) of 755 ± 0.6 kg/m3, a mass density ([1]; 298.15 K, x1 = 0.9514) of 746.9 ± 0.6 kg/m3 and a mass density ([1]; 298.15 K, x1 = 1) of 740 ± 0.6 kg/m3. The speed of sound ([1]; 313.15 K, x1 = 0.0431) was 1253 ± 2 m/s, the speed of sound ([1]; 313.15 K, x1 = 0.0812) was 1248 ± 2 m/s and the speed of sound ([1]; 313.15 K, x1 = 0.1859) was 1234 ± 2 m/s. For the same compound, the speed of sound ([1]; 313.15 K, x1 = 0.2864) was 1220 ± 2 m/s, the speed of sound ([1]; 313.15 K, x1 = 0.3348) was 1213 ± 2 m/s and the speed of sound ([1]; 313.15 K, x1 = 0.4741) was 1194 ± 2 m/s. For the same compound, the speed of sound ([1]; 313.15 K, x1 = 0.5747) was 1181 ± 2 m/s, the speed of sound ([1]; 313.15 K, x1 = 0.6933) was 1166 ± 2 m/s and the speed of sound ([1]; 313.15 K, x1 = 0.7932) was 1153 ± 2 m/s. The speed of sound ([1]; 313.15 K, x1 = 0.8961) was 1141 ± 2 m/s, the speed of sound ([1]; 313.15 K, x1 = 0.9472) was 1135 ± 2 m/s and the speed of sound ([1]; 313.15 K, x1 = 1) was 1130 ± 2 m/s. For the same compound, the mass density ([1]; 313.15 K, x1 = 0.0431) was 842.9 ± 0.5 kg/m3, the mass density ([1]; 313.15 K, x1 = 0.0812) was 839.2 ± 0.5 kg/m3 and the mass density ([1]; 313.15 K, x1 = 0.1859) was 828.6 ± 0.5 kg/m3. It also gave a mass density ([1]; 313.15 K, x1 = 0.2864) of 818 ± 0.5 kg/m3, a mass density ([1]; 313.15 K, x1 = 0.3348) of 812.6 ± 0.6 kg/m3 and a mass density ([1]; 313.15 K, x1 = 0.4741) of 796.4 ± 0.6 kg/m3. The mass density ([1]; 313.15 K, x1 = 0.5747) was 784.1 ± 0.6 kg/m3, the mass density ([1]; 313.15 K, x1 = 0.6933) was 768.8 ± 0.6 kg/m3 and the mass density ([1]; 313.15 K, x1 = 0.7932) was 755.2 ± 0.6 kg/m3. For the same compound, the mass density ([1]; 313.15 K, x1 = 0.8961) was 740.5 ± 0.6 kg/m3, the mass density ([1]; 313.15 K, x1 = 0.9472) was 733 ± 0.7 kg/m3 and the mass density ([1]; 313.15 K, x1 = 1) was 725 ± 0.7 kg/m3. For the same compound, the refractive index ([2]; 298.15 K, x1 = 0.0391) was 1.49183 ± 0.0011, the refractive index ([2]; 298.15 K, x1 = 0.0908) was 1.48818 ± 0.0011 and the refractive index ([2]; 298.15 K, x1 = 0.1894) was 1.48065 ± 0.0011. The refractive index ([2]; 298.15 K, x1 = 0.2859) was 1.47341 ± 0.001, the refractive index ([2]; 298.15 K, x1 = 0.3868) was 1.46504 ± 0.0011 and the refractive index ([2]; 298.15 K, x1 = 0.4808) was 1.45745 ± 0.0011. For the same compound, the refractive index ([2]; 298.15 K, x1 = 0.6394) was 1.44242 ± 0.0011, the refractive index ([2]; 298.15 K, x1 = 0.6923) was 1.43668 ± 0.0011 and the refractive index ([2]; 298.15 K, x1 = 0.7909) was 1.42686 ± 0.0011. For the same compound, the refractive index ([2]; 298.15 K, x1 = 0.8952) was 1.41504 ± 0.0011, the refractive index ([2]; 298.15 K, x1 = 0.9514) was 1.40888 ± 0.0011 and the refractive index ([2]; 298.15 K, x1 = 1) was 1.40292 ± 0.001. For the same compound, the refractive index ([2]; 313.15 K, x1 = 0.0431) was 1.48387 ± 0.0011, the refractive index ([2]; 313.15 K, x1 = 0.0812) was 1.48096 ± 0.0011 and the refractive index ([2]; 313.15 K, x1 = 0.1859) was 1.47303 ± 0.0011. For the same compound, the refractive index ([2]; 313.15 K, x1 = 0.2864) was 1.46521 ± 0.001, the refractive index ([2]; 313.15 K, x1 = 0.3348) was 1.46128 ± 0.0011 and the refractive index ([2]; 313.15 K, x1 = 0.4741) was 1.44893 ± 0.0011. The refractive index ([2]; 313.15 K, x1 = 0.5747) was 1.43989 ± 0.0011, the refractive index ([2]; 313.15 K, x1 = 0.6933) was 1.42834 ± 0.0011 and the refractive index ([2]; 313.15 K, x1 = 0.7932) was 1.4181 ± 0.0011. For the same compound, the refractive index ([2]; 313.15 K, x1 = 0.8961) was 1.4067 ± 0.0011, the refractive index ([2]; 313.15 K, x1 = 0.9472) was 1.40122 ± 0.0011 and the refractive index ([2]; 313.15 K, x1 = 1) was 1.39456 ± 0.001.
